As a reminder, the IC50 is the concentration that inhibits the measured activity by half.

Read-outs that look alike come from different tables or passages of the source.

Experiment [1] concerns the target c-KIT kinase (uKIT) (Homo sapiens (Human), UniProt P10721). The experiment is described as follows: Biochemical Assay for uKIT (coupled pyruvate kinase/lactate dehydrogenase assay). Conditions: Inhibition of biochemical activity of uKIT kinase; 1 mM ATP. The gist of the method:
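Continuous coupled PK/LDH assay following NADH oxidation at 340 nm for 6 h at 30° C, with 16 nM or 4.36 nM KIT (two constructs), 0.7 mg/mL PE4Y, 1 mM ATP, pH 7.5. Rates from the 2-3 h window converted to percent inhibition versus controls; IC50 fitted.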

The subject of experiment [2] is Ba/F3 KIT mutant cells. The experiment is described as follows: Ba/F3 mutant KIT Cell Proliferation Assays (resazurin). Conditions: Mus musculus, BaF3. The class given is cell-based. The gist of the method: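 IC50 values come from resazurin fluorescence (ex 540, em 600) after 5 h dye exposure, added as a 440 μM solution. Cells were IL-3-independent Ba/F3 expressing mutant KIT from a lentiviral vector, puromycin-selected.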

Experiment [3] has as its system GIST 430 cells. In words: GIST 430 Cell Proliferation Assay (resazurin). The class given is cell-based. Conditions: Homo sapiens; GIST430 cell proliferation. A digest of the protocol: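 Five thousand cells per well were exposed to serially diluted compound in complete growth medium for 115 h at 37 degrees Celsius, 5% CO2. Resazurin was then added for a further 5 h, fluorescence read at 540 nm excitation/600 nm emission, and IC50 values calculated.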
In general terms: Alamar Blue is a resazurin reagent that responds to reducing activity.

Where [4] appears, read: Ba/F3 KIT AYdup mutant cell proliferation, read-out: AYdup IC50.
The mark [5] stands for this setting: Ba/F3 KIT AYdup-D816G mutant cell proliferation, read-out: AYdup-D816G IC50.
[6] abbreviates: Ba/F3 KIT AYdup-V654A mutant cell proliferation, read-out: AYdup-V654A IC50.
[7] abbreviates: Ba/F3 KIT exon11del-V654A mutant cell proliferation, read-out: exon11del-V654A IC50.
The mark [8] stands for this setting: Ba/F3 KIT exon11del-Y823D mutant cell proliferation, read-out: exon11del-Y823D IC50.

Sequence of c-KIT kinase (uKIT) (P10721 other isoform, or with tags, fused parts or gaps): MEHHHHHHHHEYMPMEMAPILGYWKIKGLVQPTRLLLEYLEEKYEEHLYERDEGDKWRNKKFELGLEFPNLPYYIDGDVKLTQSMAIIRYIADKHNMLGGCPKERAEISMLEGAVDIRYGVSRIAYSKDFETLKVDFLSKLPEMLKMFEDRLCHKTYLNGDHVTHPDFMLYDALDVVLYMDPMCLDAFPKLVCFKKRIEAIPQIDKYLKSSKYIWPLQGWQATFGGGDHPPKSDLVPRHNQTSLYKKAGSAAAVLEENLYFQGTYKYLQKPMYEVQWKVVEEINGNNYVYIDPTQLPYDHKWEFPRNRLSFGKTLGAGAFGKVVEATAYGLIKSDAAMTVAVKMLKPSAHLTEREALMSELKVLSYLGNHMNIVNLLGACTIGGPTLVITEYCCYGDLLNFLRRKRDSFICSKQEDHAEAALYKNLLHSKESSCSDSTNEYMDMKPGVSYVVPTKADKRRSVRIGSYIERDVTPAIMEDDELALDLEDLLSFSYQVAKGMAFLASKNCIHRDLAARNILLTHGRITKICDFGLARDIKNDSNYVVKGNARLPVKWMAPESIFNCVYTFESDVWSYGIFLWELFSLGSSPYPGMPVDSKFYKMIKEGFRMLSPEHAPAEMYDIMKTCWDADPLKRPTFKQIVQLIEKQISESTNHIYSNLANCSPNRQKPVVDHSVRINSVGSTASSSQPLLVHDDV

Consider `COCCOc1cc(F)c2c(Nc3ccc(NC(=O)CC(=O)NC4CCCC4)cc3)ncnc2c1` [Example 92], for which the IC50 in experiment [1] is not above 0.01 µM; in experiment [2] (setting [4]) it was not above 0.01 µM; in experiment [2] (setting [5]), 0.01 to 0.1 µM; in experiment [2] (setting [6]), 0.01 to 0.1 µM; in experiment [2] (setting [7]) it was not above 0.01 µM; in experiment [2] (setting [8]), 0.01 to 0.1 µM. For the same compound, the IC50 in experiment [3] is not above 0.01 µM.

Consider `COCCOc1cc(F)c2c(Nc3ccc(NC(=O)CC(=O)NC4COC4)cc3)ncnc2c1` [Example 93], for which the IC50 in experiment [1] was 0.1 to 1 µM; in experiment [2] (setting [6]) it was more than 1 µM; in experiment [2] (setting [7]), 0.1 to 1 µM; in experiment [3] it was more than 1 µM.

`COCCOc1cc(F)c2c(Nc3ccc(NC(=O)CC(=O)NC4CC4)cc3)ncnc2c1` [Example 94]: the IC50 in experiment [1], in experiment [2] (setting [6]), in experiment [2] (setting [7]) and in experiment [3] was 0.1 to 1 µM each time.

Take `COCCOc1cc(F)c2c(Nc3ccc(NC(=O)CC(=O)NC4CCC4)cc3)ncnc2c1` [Example 95]: the IC50 is not above 0.01 µM in experiment [1]; not above 0.01 µM in experiment [2] (setting [4]); 0.01 to 0.1 µM in experiment [2] (setting [5]); 0.01 to 0.1 µM in experiment [2] (setting [6]); not above 0.01 µM in experiment [2] (setting [7]); 0.01 to 0.1 µM in experiment [2] (setting [8]). Also, the IC50 in experiment [3] is not above 0.01 µM.

For `COCCOc1cc(F)c2c(Nc3ccc(NC(=O)CC(=O)NC(C)C)cc3)ncnc2c1` [Example 96], the IC50 in experiment [1] is 0.01 to 0.1 µM; in experiment [2] (setting [6]), 0.01 to 0.1 µM; in experiment [2] (setting [7]) it was 0.01 to 0.1 µM; in experiment [2] (setting [8]), more than 1 µM; in experiment [3] it was 0.01 to 0.1 µM.

For `COCCOc1cc(F)c2c(Nc3ccc(NC(=O)CC(=O)NC4CCCCC4)cc3)ncnc2c1` [Example 97], the IC50 in experiment [1] was not above 0.01 µM; in experiment [2] (setting [4]) it was not above 0.01 µM; in experiment [2] (setting [5]) it was 0.01 to 0.1 µM; in experiment [2] (setting [6]), 0.01 to 0.1 µM; in experiment [2] (setting [7]) it was not above 0.01 µM; in experiment [2] (setting [8]), 0.01 to 0.1 µM. The IC50 in experiment [3] is not above 0.01 µM.

On to `COCCOc1cc(F)c2c(Nc3ccc(NC(=O)CC(=O)NCC4(C#N)CC4)cc3)ncnc2c1` [Example 98], for which the IC50 in experiment [1] was 0.01 to 0.1 µM; in experiment [2] (setting [6]) it was 0.1 to 1 µM; in experiment [2] (setting [7]), 0.01 to 0.1 µM; in experiment [2] (setting [8]), more than 1 µM; in experiment [3], 0.1 to 1 µM.

With `COCCOc1cc(F)c2c(Nc3ccc(NC(=O)NCCCC(C)(C)C#N)cc3)ncnc2c1` [Example 99], the IC50 is not above 0.01 µM in experiment [1]; 0.01 to 0.1 µM in experiment [2] (setting [6]); not above 0.01 µM in experiment [2] (setting [7]); 0.01 to 0.1 µM in experiment [2] (setting [8]); not above 0.01 µM in experiment [3].

Take `COCCOc1cc(F)c2c(Nc3ccc(NC(=O)CC(=O)NCCC(C)C)cc3)ncnc2c1` [Example 100]: the IC50 in experiment [1] was 0.01 to 0.1 µM; in experiment [2] (setting [6]) it was 0.01 to 0.1 µM; in experiment [2] (setting [7]), 0.01 to 0.1 µM; in experiment [2] (setting [8]) it was 0.1 to 1 µM; in experiment [3], 0.01 to 0.1 µM.

As for `COCCOc1cc(F)c2c(Nc3ccc(NC(=O)CC(=O)NC[C@H]4CCCO4)cc3)ncnc2c1` [Example 101], the IC50 was 0.1 to 1 µM in experiment [1]; 0.1 to 1 µM in experiment [2] (setting [6]); 0.01 to 0.1 µM in experiment [2] (setting [7]); more than 1 µM in experiment [2] (setting [8]); 0.1 to 1 µM in experiment [3].

As to `COCCOc1cc(F)c2c(Nc3ccc(NC(=O)CNC(=O)CC(C)(C)C)cc3)ncnc2c1` [Example 102], the IC50 in experiment [1] is 0.01 to 0.1 µM; in experiment [2] (setting [4]), not above 0.01 µM; in experiment [2] (setting [5]), 0.01 to 0.1 µM; in experiment [2] (setting [6]), 0.01 to 0.1 µM; in experiment [2] (setting [7]) it was 0.01 to 0.1 µM; in experiment [2] (setting [8]), 0.01 to 0.1 µM. Moreover, the IC50 in experiment [3] is not above 0.01 µM.

With `COCCOc1cc(F)c2c(Nc3ccc(NC(=O)CNC(=O)C(C)(C)C)cc3)ncnc2c1` [Example 103], the IC50 is 0.01 to 0.1 µM in experiment [1]; 0.01 to 0.1 µM in experiment [2] (setting [6]); 0.01 to 0.1 µM in experiment [2] (setting [7]); 0.1 to 1 µM in experiment [2] (setting [8]); not above 0.01 µM in experiment [3].

As for `CC(C)(C#N)CCNC(=O)Nc1ccc(Nc2ncnc3cc(OCCN4CCOCC4)cc(F)c23)cc1` [Example 104], the IC50 in experiment [1] is not above 0.01 µM; in experiment [2] (setting [4]), not above 0.01 µM; in experiment [2] (setting [5]), not above 0.01 µM; in experiment [2] (setting [6]) it was 0.01 to 0.1 µM; in experiment [2] (setting [7]) it was not above 0.01 µM; in experiment [2] (setting [8]), not above 0.01 µM. Also, the IC50 in experiment [3] is not above 0.01 µM.

In the case of `COCCOc1cc(F)c2c(Nc3ccc(NC(=O)NCCC(C)(C)C#N)c(F)c3)ncnc2c1` [Example 105], the IC50 in experiment [1] was not above 0.01 µM; in experiment [2] (setting [6]) it was 0.01 to 0.1 µM; in experiment [2] (setting [7]), not above 0.01 µM; in experiment [2] (setting [8]), 0.1 to 1 µM; in experiment [3], not above 0.01 µM.

For the compound `COCCOc1cc(F)c2c(Nc3ccc(NC(=O)NCCCC(C)(C)F)cc3)ncnc2c1` [Example 106], the half-maximal inhibitory concentration (IC50) in experiment [1] is not above 0.01 µM; in experiment [2] (setting [6]), 0.01 to 0.1 µM; in experiment [2] (setting [7]), not above 0.01 µM; in experiment [2] (setting [8]), 0.01 to 0.1 µM; in experiment [3], not above 0.01 µM.

Turning to `COCCOc1cc(F)c2c(Nc3ccc(NC(=O)CC(=O)NCCC(C)(C)OC)cc3)ncnc2c1` [Example 107], the IC50 in experiment [1] was 0.01 to 0.1 µM; in experiment [2] (setting [6]), 0.1 to 1 µM; in experiment [2] (setting [7]), 0.01 to 0.1 µM; in experiment [2] (setting [8]), more than 1 µM; in experiment [3], 0.1 to 1 µM.

Regarding `COCCOc1cc(F)c2c(Nc3ccc(NC(=O)CC(=O)NCC4(C)CCOCC4)cc3)ncnc2c1` [Example 109], the half-inhibitory concentration (IC50) in experiment [1] is 0.01 to 0.1 µM; in experiment [2] (setting [6]), 0.1 to 1 µM; in experiment [2] (setting [7]), 0.01 to 0.1 µM; in experiment [2] (setting [8]) it was more than 1 µM; in experiment [3], 0.01 to 0.1 µM.

As to `COCCOc1cc(F)c2c(Nc3ccc(NC(=O)CC(=O)NCC4(C)CCCO4)cc3)ncnc2c1` (stereo not shown) [Example 110], the IC50 was 0.01 to 0.1 µM in experiment [1]; 0.1 to 1 µM in experiment [2] (setting [6]); 0.01 to 0.1 µM in experiment [2] (setting [7]); more than 1 µM in experiment [2] (setting [8]); 0.01 to 0.1 µM in experiment [3].

For the compound `COCCOc1cc(F)c2c(Nc3ccc(NC(=O)CC(=O)NCC4(C)CCC4)cc3)ncnc2c1` [Example 111], the IC50 in experiment [1] is not above 0.01 µM; in experiment [2] (setting [4]), not above 0.01 µM; in experiment [2] (setting [5]), 0.01 to 0.1 µM; in experiment [2] (setting [6]), 0.01 to 0.1 µM; in experiment [2] (setting [7]), not above 0.01 µM; in experiment [2] (setting [8]), 0.01 to 0.1 µM. Also, the IC50 in experiment [3] was not above 0.01 µM.

With `COCCOc1cc(F)c2c(Nc3ccc(NC(=O)CC(=O)NC4CC(C)(C)C4)cc3)ncnc2c1` [Example 112], the IC50 was 0.01 to 0.1 µM in experiment [1]; not above 0.01 µM in experiment [2] (setting [4]); 0.01 to 0.1 µM in experiment [2] (setting [5]); 0.01 to 0.1 µM in experiment [2] (setting [6]); not above 0.01 µM in experiment [2] (setting [7]); 0.01 to 0.1 µM in experiment [2] (setting [8]). The IC50 in experiment [3] was not above 0.01 µM.

Regarding `COCCOc1cc(F)c2c(Nc3ccc(NC(=O)CC(=O)NC4CC(F)(F)C4)cc3)ncnc2c1` [Example 113], the IC50 in experiment [1] lay within 0.01 to 0.1 µM; in experiment [2] (setting [6]) it was 0.01 to 0.1 µM; in experiment [2] (setting [7]), 0.01 to 0.1 µM; in experiment [2] (setting [8]), 0.1 to 1 µM; in experiment [3] it was 0.01 to 0.1 µM.

For `COCCOc1cc(F)c2c(Nc3ccc(NC(=O)CC(=O)NC4CC5(COC5)C4)cc3)ncnc2c1` [Example 114], the concentration for half-maximal inhibition (IC50) is 0.1 to 1 µM in experiment [1]; 0.1 to 1 µM in experiment [2] (setting [6]); 0.1 to 1 µM in experiment [2] (setting [7]); more than 1 µM in experiment [2] (setting [8]); 0.1 to 1 µM in experiment [3].

`COCCOc1cc(F)c2c(Nc3ccc(NC(=O)CC(=O)NCC4CC(F)(F)C4)cc3)ncnc2c1` [Example 115]: the IC50 in experiment [1] is 0.01 to 0.1 µM; in experiment [2] (setting [6]) it was 0.01 to 0.1 µM; in experiment [2] (setting [7]), 0.01 to 0.1 µM; in experiment [2] (setting [8]), 0.1 to 1 µM; in experiment [3] it was 0.01 to 0.1 µM.
